In patent US8557741B2, “3-aminocarbonyl-substituted benzoylcyclohexanediones and their use as herbicides” (Bayer CropScience AG, priority 2010, dated 2013):
Where two headings read alike, the source gives them in different places.

Assays:
Assay type in all cases: in vivo
[1] = system: VIOTR; test: Pre-emergence herbicidal action against harmful plants
Description: (§1) Seeds of monocotyledonous and dicotyledonous weed plants and crop plants are placed in wood-fibre pots in sandy loam and covered with soil. The compounds according to the invention and the compounds known from the prior art, formulated in the form of wettable powders (WP) or as emulsion concentrates (EC), are then applied as aqueous suspension or emulsion at a water application rate of 600 to 800 I/ha (converted) with the addition of 0.2% of wetting agent to the surface of the covering soil. After the treatment, the pots are placed in a greenhouse and kept under good growth conditions for the test plants. The visual assessment of the damage to the test plants is carried out after a trial period of 3 weeks by comparison with untreated controls (herbicidal activity in percent (%): 100% activity=the plants have died, 0% activity=like control plants, —=not tested). The results of comparative table A show the compounds according to the invention have a higher herbicidal activity than the compounds of the greatest structural similarity known from the closest prior art.

[2] = system: Stellaria media; test: as above; details: 504 h, read-out: Herbicidal action against STEME; for pest or weed control at 80 g/ha: dosage 80 g/ha, visual assessment after 3 weeks (Table B); for pest or weed control at 320 g/ha: dosage 320 g/ha, visual assessment after 3 weeks (Table A)
Description: as §1, with “The abbreviations used in the tables below denote: • ABUTH Abutilon theophrasti • AMARE Amaranthus retroflexus • ECHCG Echinochloa crus galli • PHBPU Phartoitis purpureum • STEME Stellaria media • ALOMY Alopecurus myosuroides • AVEFA Avena fatua • MATIN Matricaria inodora • POLCO Fallopia convolvulus • VERPE Veronica persica 1. Pre-emergence Herbicidal Action Against Harmful Plants Seeds” for “Seeds”

[3] = system: Abutilon theophrasti; test: as above; details: for pest or weed control at 80 g/ha / pest or weed control at 320 g/ha: Abutilon theophrasti, 504 h, read-out: Herbicidal action against ABUTH; for pest or weed control at 80 g/ha: dosage 80 g/ha, visual assessment after 3 weeks (Table B)
Description: as §1, with “The abbreviations used in the tables below denote: • ABUTH Abutilon theophrasti • AMARE Amaranthus retroflexus • ECHCG Echinochloa crus galli • PHBPU Phartoitis purpureum • STEME Stellaria media • ALOMY Alopecurus myosuroides • AVEFA Avena fatua • MATIN Matricaria inodora • POLCO Fallopia convolvulus • VERPE Veronica persica 1. Pre-emergence Herbicidal Action Against Harmful Plants Seeds” for “Seeds”

[4] = system: Matricaria inodora; test: Post-emergence herbicidal action against harmful plants; details: Tripleurospermum inodorum, 504 h, read-out: Herbicidal action against MATIN; for pest or weed control at 20 g/ha: dosage 20 g/ha, visual rating after about 3 weeks (Table F); for pest or weed control at 80 g/ha: dosage 80 g/ha
Description: (§2) The abbreviations used in the tables below denote: • ABUTH Abutilon theophrasti • AMARE Amaranthus retroflexus • ECHCG Echinochloa crus galli • PHBPU Phartoitis purpureum • STEME Stellaria media • ALOMY Alopecurus myosuroides • AVEFA Avena fatua • MATIN Matricaria inodora • POLCO Fallopia convolvulus • VERPE Veronica persica 1. Pre-emergence Herbicidal Action Against Harmful Plants Seeds of monocotyledonous and dicotyledonous weed and crop plants are placed in sandy loam in wood-fibre pots, covered with soil and cultivated in a greenhouse under good growth conditions. 2 to 3 weeks after sowing, the test plants are treated at the one-leaf stage. The compounds according to the invention, formulated in the form of wettable powders (WP) or as emulsion concentrates (EC), are then sprayed as aqueous suspension or emulsion at a water application rate of 600 to 800 I/ha (converted) with the addition of 0.2% of wetting agent onto the green parts of the plants. After the test plants have been kept in the greenhouse under optimum growth conditions for about 3 weeks, the activity of the preparations is rated visually in comparison to untreated controls (herbicidal activity in percent (%): 100% activity=the plants have died, 0% activity=control plants, —=not tested).

[5] = system: Phartoitis purpureum; test: as above; details: 504 h; for pest or weed control at 20 g/ha: dosage 20 g/ha, visual rating after about 3 weeks (Table F); for pest or weed control at 80 g/ha: dosage 80 g/ha
Description: as §2

[6] = system: Stellaria media; test: as above; details: 504 h, read-out: Herbicidal action against STEME; for pest or weed control at 20 g/ha: dosage 20 g/ha, visual rating after about 3 weeks (Table F)
Description: as §2

[7] = system: Veronica persica; test: as above; details: 504 h, read-out: Herbicidal action against VERPE; for pest or weed control at 20 g/ha: dosage 20 g/ha, visual rating after about 3 weeks (Table F)
Description: as §2

[8] = system: Amaranthus retroflexus; test: as above; details: 504 h, read-out: Herbicidal action against AMARE; for pest or weed control at 20 g/ha: dosage 20 g/ha, visual rating after about 3 weeks (Table F)
Description: as §2

[9] = system: VIOTR; test: as above
Experimental: as §2, with “Seeds” for “The abbreviations used in the tables below denote: • ABUTH Abutilon theophrasti • AMARE Amaranthus retroflexus • ECHCG Echinochloa crus galli • PHBPU Phartoitis purpureum • STEME Stellaria media • ALOMY Alopecurus myosuroides • AVEFA Avena fatua • MATIN Matricaria inodora • POLCO Fallopia convolvulus • VERPE Veronica persica 1. Pre-emergence Herbicidal Action Against Harmful Plants Seeds”

[10] = system: Matricaria inodora; test: Pre-emergence herbicidal action against harmful plants; details: dosage 320 g/ha; for pest or weed control at 320 g/ha: Tripleurospermum inodorum, 504 h, read-out: Herbicidal action against MATIN
Description: as §1, with “The abbreviations used in the tables below denote: • ABUTH Abutilon theophrasti • AMARE Amaranthus retroflexus • ECHCG Echinochloa crus galli • PHBPU Phartoitis purpureum • STEME Stellaria media • ALOMY Alopecurus myosuroides • AVEFA Avena fatua • MATIN Matricaria inodora • POLCO Fallopia convolvulus • VERPE Veronica persica 1. Pre-emergence Herbicidal Action Against Harmful Plants Seeds” for “Seeds”

[11] = system: Avena fatua; test: as above; details: dosage 320 g/ha, visual assessment after 3 weeks (Table A)
Description: as §1, with “The abbreviations used in the tables below denote: • ABUTH Abutilon theophrasti • AMARE Amaranthus retroflexus • ECHCG Echinochloa crus galli • PHBPU Phartoitis purpureum • STEME Stellaria media • ALOMY Alopecurus myosuroides • AVEFA Avena fatua • MATIN Matricaria inodora • POLCO Fallopia convolvulus • VERPE Veronica persica 1. Pre-emergence Herbicidal Action Against Harmful Plants Seeds” for “Seeds”

[12] = system: Echinochloa crus galli; test: as above; details: dosage 320 g/ha; for pest or weed control at 320 g/ha: Echinochloa, 504 h, read-out: Herbicidal action against ECHCG
Description: as §1, with “The abbreviations used in the tables below denote: • ABUTH Abutilon theophrasti • AMARE Amaranthus retroflexus • ECHCG Echinochloa crus galli • PHBPU Phartoitis purpureum • STEME Stellaria media • ALOMY Alopecurus myosuroides • AVEFA Avena fatua • MATIN Matricaria inodora • POLCO Fallopia convolvulus • VERPE Veronica persica 1. Pre-emergence Herbicidal Action Against Harmful Plants Seeds” for “Seeds”

[13] = system: Veronica persica; test: as above; details: 504 h, dosage 320 g/ha, visual assessment after 3 weeks (Table A), read-out: Herbicidal action against VERPE
Description: as §1, with “The abbreviations used in the tables below denote: • ABUTH Abutilon theophrasti • AMARE Amaranthus retroflexus • ECHCG Echinochloa crus galli • PHBPU Phartoitis purpureum • STEME Stellaria media • ALOMY Alopecurus myosuroides • AVEFA Avena fatua • MATIN Matricaria inodora • POLCO Fallopia convolvulus • VERPE Veronica persica 1. Pre-emergence Herbicidal Action Against Harmful Plants Seeds” for “Seeds”

[14] = system: Amaranthus retroflexus; test: as above; details: 504 h, dosage 320 g/ha, read-out: Herbicidal action against AMARE
Description: as §1, with “The abbreviations used in the tables below denote: • ABUTH Abutilon theophrasti • AMARE Amaranthus retroflexus • ECHCG Echinochloa crus galli • PHBPU Phartoitis purpureum • STEME Stellaria media • ALOMY Alopecurus myosuroides • AVEFA Avena fatua • MATIN Matricaria inodora • POLCO Fallopia convolvulus • VERPE Veronica persica 1. Pre-emergence Herbicidal Action Against Harmful Plants Seeds” for “Seeds”

[15] = system: Fallopia convolvulus; test: Post-emergence herbicidal action against harmful plants; details: 504 h, dosage 80 g/ha, read-out: Herbicidal action against POLCO
Description: as §2

[16] = system: Echinochloa crus galli; test: as above; details: 504 h, dosage 80 g/ha, read-out: Herbicidal action against ECHCG
Description: as §2

[17] = system: Abutilon theophrasti; test: as above; details: 504 h, dosage 80 g/ha, visual rating after about 3 weeks (Table D), read-out: Herbicidal action against ABUTH
Description: as §2

[18] = system: SETVI; test: Pre-emergence herbicidal action against harmful plants; details: dosage 320 g/ha, visual assessment after 3 weeks (Table C)
Description: as §1

[19] = system: Phartoitis purpureum; test: as above; details: dosage 320 g/ha, visual assessment after 3 weeks (Table C)
Description: as §1, with “The abbreviations used in the tables below denote: • ABUTH Abutilon theophrasti • AMARE Amaranthus retroflexus • ECHCG Echinochloa crus galli • PHBPU Phartoitis purpureum • STEME Stellaria media • ALOMY Alopecurus myosuroides • AVEFA Avena fatua • MATIN Matricaria inodora • POLCO Fallopia convolvulus • VERPE Veronica persica 1. Pre-emergence Herbicidal Action Against Harmful Plants Seeds” for “Seeds”

[20] = dosage 80 g/ha, visual assessment after 3 weeks (Table B)
[21] = read-out: Herbicidal action against PHPBU
[22] = dosage 20 g/ha, visual rating after about 3 weeks (Table F)
[23] = visual assessment after 3 weeks (Table A)
[24] = dosage 320 g/ha, visual assessment after 3 weeks (Table A)
[25] = visual rating after about 3 weeks (Table D)
[26] = dosage 80 g/ha, visual rating after about 3 weeks (Table D)
[27] = dosage 320 g/ha, visual assessment after 3 weeks (Table C)
[28] = visual assessment after 3 weeks (Table C)
[29] = visual rating after about 3 weeks (Table E)
[30] = visual rating after about 3 weeks (Table E), read-out: Herbicidal action against PHPBU
[31] = dosage 80 g/ha, visual rating after about 3 weeks (Table E)

| Compound | Herbicidal action against VIOTR [1, 20] [%] | pest or weed control at 80 g/ha [2] [%] | pest or weed control at 80 g/ha [3] [%] | pest or weed control at 20 g/ha [4] [%] | pest or weed control at 20 g/ha [5, 21] [%] | pest or weed control at 20 g/ha [6] [%] | pest or weed control at 20 g/ha [7] [%] | pest or weed control at 20 g/ha [8] [%] | Herbicidal action against VIOTR [9, 22] [%] | pest or weed control at 320 g/ha [10, 23] [%] | pest or weed control at 320 g/ha [2] [%] | pest or weed control at 320 g/ha [12, 23] [%] | pest or weed control at 320 g/ha [3, 24] [%] | pest or weed control at 320 g/ha [13] [%] | Herbicidal action against SETVI [18] [%] | Herbicidal action against VIOTR [1, 27] [%] | Herbicidal action against PHPBU [19] [%] | pest or weed control at 320 g/ha [14, 28] [%] | pest or weed control at 80 g/ha [15, 29] [%] | pest or weed control at 80 g/ha [4, 29] [%] | also measured |
| --- | --- | --- | --- | --- | --- | --- | --- | --- | --- | --- | --- | --- | --- | --- | --- | --- | --- | --- | --- | --- | --- |
| CCS(=O)(=O)c1ccc(C(=O)C2=C(O)CCCC2=O)c(Cl)c1OC(C)C(=O)NC (centres unmarked) [Compound S11, reference compound] | 40 | 30 | 70 | 70 | 70 | 80 | 90 | 90 | 70 |  |  |  |  |  |  |  |  |  |  |  |  |
| CCN(C)C(=O)COc1c(S(C)(=O)=O)ccc(C(=O)C2=C(O)CCCC2=O)c1C(F)(F)F [Compound E7] |  |  |  |  |  |  |  |  |  | 100 | 100 | 100 | 100 | 100 |  |  |  |  |  |  | Herbicidal action against AVEFA [11]: 80%; pest or weed control at 320 g/ha [14, 23]: 100%; pest or weed control at 80 g/ha [15, 25]: 80%; pest or weed control at 80 g/ha [4, 25]: 100%; pest or weed control at 80 g/ha ([5]; visual rating after about 3 weeks (Table D), read-out: Herbicidal action against PHBPU): 100%; pest or weed control at 80 g/ha [6, 26]: 100%; pest or weed control at 80 g/ha [16, 25]: 90%; pest or weed control at 80 g/ha [17]: 90%; pest or weed control at 80 g/ha [7, 26]: 100%; pest or weed control at 80 g/ha [8, 26]: 100% |
| CCS(=O)(=O)c1ccc(C(=O)C2=C(O)CCCC2=O)c(Cl)c1OCC(=O)N(C)OC [Compound S8, reference compound] |  |  |  |  |  |  |  |  |  |  |  |  |  |  | 50 | 20 | 70 | 90 | 80 | 60 | pest or weed control at 320 g/ha [10, 28]: 90%; pest or weed control at 320 g/ha [12, 28]: 60%; pest or weed control at 320 g/ha [3, 27]: 90%; pest or weed control at 80 g/ha [5, 30]: 80%; pest or weed control at 80 g/ha [16, 29]: 80%; Herbicidal action against VIOTR [9, 31]: 80% |
| CCS(=O)(=O)c1ccc(C(=O)C2=C(O)CCCC2=O)c(C(F)(F)F)c1OC(C)C(=O)NC (centres unmarked) [Compound E11] | 90 | 70 | 90 | 90 | 80 | 90 | 100 | 100 | 100 |  |  |  |  |  |  |  |  |  |  |  |  |
| CCS(=O)(=O)c1ccc(C(=O)C2=C(O)CCCC2=O)c(C(F)(F)F)c1OCC(=O)N(C)OC [Compound E8] |  |  |  |  |  |  |  |  |  | 100 | 100 | 100 | 100 | 100 | 90 | 100 | 90 | 100 | 90 | 90 | Herbicidal action against MATIN [10, 28]: 100%; Herbicidal action against ECHCG [12, 28]: 100%; Herbicidal action against ABUTH [3, 27]: 100%; pest or weed control at 80 g/ha [5, 30]: 80%; pest or weed control at 80 g/ha [16, 29]: 90%; Herbicidal action against VIOTR [9, 31]: 90% |
